Activity calls are given as the source filed them. The calls are words filed in the database; no cut-off is given here.
Assays:
[1] = biological target: Protein-arginine deiminase type-2 (Homo sapiens, UniProt Q9Y2J8); assay: Inhibition of PAD2 (unknown origin) using Nalpha-benzoyl-L-arginine ethyl ester as substrate preincubated for 60 mins followed by substrate addition and measured after 90 mins by colorimetric analysis
[2] = biological target: Protein-arginine deiminase type-4 (Homo sapiens, UniProt Q9UM07); assay: Inhibition of PAD4 (unknown origin) using Nalpha-benzoyl-L-arginine ethyl ester as substrate preincubated for 60 mins followed by substrate addition and measured after 90 mins by colorimetric analysis
Protein-arginine deiminase type-4, sequence (Q9UM07 whole entry): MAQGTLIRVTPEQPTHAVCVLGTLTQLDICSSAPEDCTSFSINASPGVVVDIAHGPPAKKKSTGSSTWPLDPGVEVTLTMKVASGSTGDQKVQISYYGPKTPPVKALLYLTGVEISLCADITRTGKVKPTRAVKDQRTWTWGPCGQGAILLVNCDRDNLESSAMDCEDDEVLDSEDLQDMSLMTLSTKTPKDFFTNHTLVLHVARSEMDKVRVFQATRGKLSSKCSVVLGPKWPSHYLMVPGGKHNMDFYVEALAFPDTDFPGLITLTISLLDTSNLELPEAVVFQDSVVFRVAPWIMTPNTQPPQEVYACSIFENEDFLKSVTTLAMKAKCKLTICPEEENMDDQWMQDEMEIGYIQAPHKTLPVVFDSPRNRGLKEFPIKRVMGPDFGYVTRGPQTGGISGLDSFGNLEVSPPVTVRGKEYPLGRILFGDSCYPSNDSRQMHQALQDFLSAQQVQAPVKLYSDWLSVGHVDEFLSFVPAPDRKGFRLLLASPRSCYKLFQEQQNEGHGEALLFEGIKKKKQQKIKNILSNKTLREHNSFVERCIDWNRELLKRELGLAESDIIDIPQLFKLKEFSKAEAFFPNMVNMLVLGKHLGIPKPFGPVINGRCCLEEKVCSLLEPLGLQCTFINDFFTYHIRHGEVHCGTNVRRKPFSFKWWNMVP

4T1 [3] = assay: Antiproliferative activity against mouse 4T1 cells assessed as inhibition of cell growth incubated for 48 hrs by MTT assay; type: functional, cell-based; conditions: 4T1, 48 h
[4] = Cytotoxicity against human MCF-10A cells assessed as inhibition of cell growth incubated for 48 hrs by MTT assay; type: toxicity, cell-based
4T1 [5] = assay: Antimetastatic activity in starved mouse 4T1 cells assessed as inhibition of cell migration by measuring reduction in number of metastatic cells incubated for 12 hrs by crystal violet staining based transwell assay; type: functional; conditions: dose 0.5-2 µM
4T1 [6] = assay: Antimetastatic activity in starved mouse 4T1 cells assessed as inhibition of cell migration by measuring reduction in wound closure rate incubated for 24 hrs by scratch wound healing assay; type: functional, cell-based; conditions: dose 0.5-2 µM
[7] = biological target: Protein-arginine deiminase type-4 (Mus musculus) (UniProt Q9Z183); assay: Inhibition of PAD4 in BALB/c mouse bone marrow neutrophils assessed as reduction in neutrophil extracellular traps formation at 2 uM preincubated for 2 hrs followed by calcium ionophore A23187 addition and measured after 2 hrs by Hoechst 33342/Ly6G staining based laser confocal microscopic analysis; type: tissue-based; conditions: time 4.0 hrs
Protein-arginine deiminase type-4 (Mus musculus), sequence (Q9Z183 whole entry): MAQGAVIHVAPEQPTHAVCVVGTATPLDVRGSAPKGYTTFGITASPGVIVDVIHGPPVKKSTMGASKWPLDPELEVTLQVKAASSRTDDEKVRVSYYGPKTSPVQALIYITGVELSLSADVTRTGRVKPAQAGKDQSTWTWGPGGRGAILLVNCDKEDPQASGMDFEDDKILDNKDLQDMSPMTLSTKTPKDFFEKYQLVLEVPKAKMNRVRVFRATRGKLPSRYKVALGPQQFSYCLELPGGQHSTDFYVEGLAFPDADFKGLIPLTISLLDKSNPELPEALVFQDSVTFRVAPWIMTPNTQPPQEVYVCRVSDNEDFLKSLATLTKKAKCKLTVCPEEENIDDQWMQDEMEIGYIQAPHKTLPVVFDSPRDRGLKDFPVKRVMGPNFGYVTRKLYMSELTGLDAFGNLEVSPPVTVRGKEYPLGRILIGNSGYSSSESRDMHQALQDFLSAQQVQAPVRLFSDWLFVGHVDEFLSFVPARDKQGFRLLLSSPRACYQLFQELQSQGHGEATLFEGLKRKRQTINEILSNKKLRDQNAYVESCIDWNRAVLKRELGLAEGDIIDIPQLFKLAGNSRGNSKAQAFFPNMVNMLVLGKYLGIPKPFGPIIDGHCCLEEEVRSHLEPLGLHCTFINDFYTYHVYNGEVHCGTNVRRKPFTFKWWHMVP

[8] = Terminal half life in male Sprague-Dawley rat at 3.5 mg/kg, iv by LC-MS/MS analysis; type: ADME, organism-based; conditions: in vivo
[9] = Clearance in male Sprague-Dawley rat at 3.5 mg/kg, iv by LC-MS/MS analysis; type: ADME, organism-based; conditions: in vivo
[10] = AUC (0 to t) in male Sprague-Dawley rat at 3.5 mg/kg, iv by LC-MS/MS analysis; type: ADME, organism-based; conditions: in vivo
4T1-Luc [11] = assay: Antitumor activity against mouse orthotopic 4T1-Luc cells implanted in iv dosed female BALB/c mouse assessed as reduction in tumor volume administered via tail vein every 2 days for 9 times for 17 days and measured every 2 days; type: functional, organism-based; conditions: dose 1-10 mg/kg, time 17.0 day
4T1-Luc [12] = assay: Antitumor activity against mouse orthotopic 4T1-Luc cells implanted in iv dosed female BALB/c mouse assessed as reduction in tumor weight administered via tail vein every 2 days for 9 times for 17 days and measured every 2 days; type: functional, organism-based; conditions: dose 1-10 mg/kg, time 17.0 day
[13] = Antitumor activity against mouse orthotopic 4T1-Luc cells implanted in female BALB/c mouse assessed as tumor growth inhibition at 10 mg/kg, iv administered via tail vein every 2 days for 9 times for 17 days and measured every 2 days relative to control; type: functional; conditions: 408 h, time 17 day, read-out: TGI
4T1-Luc [14] = assay: Antimetastatic activity against mouse orthotopic 4T1-Luc cells implanted in iv dosed female BALB/c mouse assessed as reduction in lung metastasis administered via tail vein every 2 days for 9 times for 17 days by IVIS live cell imaging analysis; type: functional, organism-based; conditions: dose 1-10 mg/kg, time 17.0 day
4T1-Luc [15] = assay: Antimetastatic activity against mouse orthotopic 4T1-Luc cells implanted in iv dosed female BALB/c mouse assessed as reduction in lung metastasis by measuring reduction in metastatic lung nodules administered via tail vein every 2 days for 9 times for 17 days; type: functional, organism-based; conditions: dose 1-10 mg/kg, time 17.0 day
4T1-Luc [16] = assay: Antimetastatic activity against mouse orthotopic 4T1-Luc cells implanted in iv dosed female BALB/c mouse assessed as reduction in lung metastasis administered via tail vein every 2 days for 9 times for 17 days by H and E staining based analysis; type: functional, organism-based; conditions: dose 1-10 mg/kg, time 17.0 day
[17] = Toxicity in female BALB/c mouse implanted with mouse orthotopic 4T1-Luc cells assessed as reduction in body weight at 1 to 10 mg/kg, iv administered via tail vein every 2 days for 9 times for 17 days and measured every 2 days; type: organism-based; conditions: in vivo, 408 h, dose 1-10 mg/kg, time 17 day
[18] = Toxicity in female BALB/c mouse implanted with mouse orthotopic 4T1-Luc cells assessed as effect on viscero-somatic ratio at 1 to 10 mg/kg, iv administered via tail vein every 2 days for 9 times for 17 days; type: organism-based; conditions: in vivo, 408 h, dose 1-10 mg/kg, time 17 day
[19] = Toxicity in female BALB/c mouse implanted with mouse orthotopic 4T1-Luc cells assessed as effect on serum AST level at 1 to 10 mg/kg, iv administered via tail vein every 2 days for 9 times for 17 days; type: organism-based; conditions: in vivo, 408 h, dose 1-10 mg/kg, time 17 day
[20] = Toxicity in female BALB/c mouse implanted with mouse orthotopic 4T1-Luc cells assessed as morphological changes in heart at 1 to 10 mg/kg, iv administered via tail vein every 2 days for 9 times for 17 days by H and E staining based analysis; type: organism-based; conditions: in vivo, 408 h, dose 1-10 mg/kg, time 17 day
[21] = Toxicity in female BALB/c mouse implanted with mouse orthotopic 4T1-Luc cells assessed as morphological changes in liver at 1 to 10 mg/kg, iv administered via tail vein every 2 days for 9 times for 17 days by H and E staining based analysis; type: organism-based; conditions: in vivo, 408 h, dose 1-10 mg/kg, time 17 day
[22] = Toxicity in female BALB/c mouse implanted with mouse orthotopic 4T1-Luc cells assessed as morphological changes in spleen at 1 to 10 mg/kg, iv administered via tail vein every 2 days for 9 times for 17 days by H and E staining based analysis; type: organism-based; conditions: in vivo, 408 h, dose 1-10 mg/kg, time 17 day
Neutrophil = assay: In vivo inhibition of PAD4 in female BALB/c mouse implanted with mouse orthotopic 4T1-Luc cells assessed as inhibition of neutrophil extracellular traps formation in tumor at 10 mg/kg, iv administered via tail vein every 2 days for 9 times for 17 days by immunohistochemical staining based analysis; type: functional, organism-based; conditions: time 17.0 day
4T1-Luc [23] = assay: Antitumor activity against mouse orthotopic 4T1-Luc cells implanted in female BALB/c mouse assessed as increase in neutrophil infiltration in tumor at 10 mg/kg, iv administered via tail vein every 2 days for 9 times for 17 days by immunohistochemical staining based analysis; type: functional, organism-based; conditions: time 17.0 day
Mus musculus [24] = assay: (§1) Induction of tumor microenvironment in female BALB/c mouse implanted with mouse orthotopic 4T1-Luc cells assessed as downregulation of myeloid derived suppressive M-MDSC cells at 1 to 10 mg/kg, iv administered via tail vein every 2 days for 9 times for 17 days by single-cell mass spectrometry flow cytometry analysis; type: functional, organism-based; conditions: dose 1-10 mg/kg, time 17.0 day
Mus musculus [25] = assay: as §1, with “G-MDSC” for “M-MDSC”; type: functional, organism-based; conditions: dose 1-10 mg/kg, time 17.0 day
Mus musculus [26] = assay: as §1, with “decrease in proportion” for “downregulation”, “PD-L1-positive/MHC-II-positive tumor-associated neutrophils” for “myeloid derived suppressive M-MDSC cells”; type: functional, organism-based; conditions: dose 1-10 mg/kg, time 17.0 day
Mus musculus [27] = assay: as §1, with “decrease in proportion” for “downregulation”, “MHC-II-negative tumor-associated neutrophils” for “myeloid derived suppressive M-MDSC cells”; type: functional, organism-based; conditions: dose 1-10 mg/kg, time 17.0 day
Mus musculus [28] = assay: Induction of tumor microenvironment in female BALB/c mouse implanted with mouse orthotopic 4T1-Luc cells assessed as decrease in PD-L1 expression for PD-L1-positive/MHC-II-positive tumor-associated neutrophils at 1 to 10 mg/kg, iv administered via tail vein every 2 days for 9 times for 17 days; type: functional, organism-based; conditions: dose 1-10 mg/kg, time 17.0 day
Mus musculus [29] = assay: Induction of tumor microenvironment in female BALB/c mouse implanted with mouse orthotopic 4T1-Luc cells assessed as increase in MHC-II expression for MHC-II-positive tumor-associated neutrophils at 1 to 10 mg/kg, iv administered via tail vein every 2 days for 9 times for 17 days; type: functional, organism-based; conditions: dose 1-10 mg/kg, time 17.0 day

Protein-arginine deiminase type-2, sequence (Q9Y2J8 whole entry): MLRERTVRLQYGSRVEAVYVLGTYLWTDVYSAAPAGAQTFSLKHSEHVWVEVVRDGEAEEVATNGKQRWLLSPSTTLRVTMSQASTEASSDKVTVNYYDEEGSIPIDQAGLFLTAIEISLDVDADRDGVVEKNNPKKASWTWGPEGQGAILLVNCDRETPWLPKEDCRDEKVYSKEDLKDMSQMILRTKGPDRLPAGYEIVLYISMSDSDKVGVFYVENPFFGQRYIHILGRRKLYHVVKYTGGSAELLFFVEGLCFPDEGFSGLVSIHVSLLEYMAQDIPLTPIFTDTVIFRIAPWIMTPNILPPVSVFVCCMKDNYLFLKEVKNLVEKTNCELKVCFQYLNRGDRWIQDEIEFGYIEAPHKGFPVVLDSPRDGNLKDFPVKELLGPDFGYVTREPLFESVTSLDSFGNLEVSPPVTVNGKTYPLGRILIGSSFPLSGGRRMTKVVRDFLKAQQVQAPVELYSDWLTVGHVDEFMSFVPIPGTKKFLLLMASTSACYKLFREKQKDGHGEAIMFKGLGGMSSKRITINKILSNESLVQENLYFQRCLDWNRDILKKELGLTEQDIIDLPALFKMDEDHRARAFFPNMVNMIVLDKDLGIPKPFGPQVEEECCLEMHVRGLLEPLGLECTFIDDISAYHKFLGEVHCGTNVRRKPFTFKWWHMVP

IC50 [1]: 2.97 µM | IC50 [2]: 0.79 µM | IC50 (4T1 [3]): 2.39 µM | inhibition [7]: Active | beta t1/2 [8]: 15 min | CL [9]: 105.24 L/h/kg | AUC(0-t) [10]: 9.53 ng·h/mL
SMILES: N=C(CCl)NCCC[C@H](NC(=O)c1cc2c([nH]c3ccccc32)c(-c2ccccc2)n1)C(=O)NCc1ccccc1
IC50 at 48 h [4]: 8.39 µM | Activity (4T1 [5]): Dose-Dependent Effect | Activity (4T1 [6]): Dose-Dependent Effect | Activity (4T1-Luc [11]): Dose-Dependent Effect | Activity (4T1-Luc [12]): Dose-Dependent Effect | inhibition in vivo at 10 mg/kg [13]: 61.8% | Activity (4T1-Luc [14]): Dose-Dependent Effect | Activity (4T1-Luc [15]): Dose-Dependent Effect | Activity (4T1-Luc [16]): Dose-Dependent Effect | Activity [17]: Non-Toxic | Activity [18]: Non-Toxic | Activity [19]: Non-Toxic | Activity [20]: Non-Toxic | Activity [21]: Non-Toxic | Activity [22]: Non-Toxic | inhibition (Neutrophil): Active | Activity (4T1-Luc [23]): Active | Activity (Mus musculus [24]): Active | Activity (Mus musculus [25]): Active | Activity (Mus musculus [26]): Active | Activity (Mus musculus [27]): Active | Activity (Mus musculus [28]): Active | Activity (Mus musculus [29]): Active

Source: ChEMBL document CHEMBL5506043, “A β-Carboline Derivate PAD4 Inhibitor Reshapes Neutrophil Phenotype and Improves the Tumor Immune Microenvironment against Triple-Negative Breast Cancer” (J Med Chem, 2024)
